One series deals with E. coli 33.1. Kind of series: Antibacterial MIC, CLSI microdilution, human pathogens. Type of series: cell-based. The note with it: Escherichia coli; E. coli 33.1 (multi-resistant); 18 h; read-out: Minimum inhibitory concentration (MIC). As to the method: (§1) Briefly, stock solutions (5 mg/ml) of compounds in DMSO were diluted in Mueller-Hinton broth (MHB) to the different two-fold assay concentrations. […] The obtained solution was added to MHB and serially two-fold diluted in a 96-well microplate. A sample of 100 μL of inoculum 1.5 × 10^6 colony forming unit (CFU) ml^-1 in MHB was added and then incubated at 37°C for 18 h. The assay was repeated three times. Wells containing MHB, 100 μL of inoculum, and DMSO served as negative controls.

The test system of the next series is S. aureus MRSA 622-4. The series is described as above. The format is cell-based. To be noted: Staphylococcus aureus, 18 h, read-out: Minimum inhibitory concentration (MIC). The method, then: as §1
The next series concerns S. aureus NTCC8325-4. Described as above. Type of series: cell-based. The note with it: Staphylococcus aureus, NTCC83254, 18 h, read-out: Minimum inhibitory concentration (MIC). As to the method: as §1
The test system of the next series is S. aureus MRSA 97-7. The description is as above. The format is cell-based. The note with it: Staphylococcus aureus, 18 h, read-out: Minimum inhibitory concentration (MIC). As to the method: as §1
The subject of another series is E. coli ATCC25922. Described as above. Type of series: cell-based. To be noted: Escherichia coli, 18 h, read-out: Minimum inhibitory concentration (MIC). As to the method: as §1
The nature of series [1]: In vitro cytotoxic activity, CyQuant cell viability, 72 h. To be noted: mouse. Type of series: cell-based. The method, then:
(§2) The used cell lines include MDA-MB-231 human breast adenocarcinoma cells, B16-F10 mouse metastatic melanoma cells and MEF primary mouse embryonic fibroblast. Cells were maintained in a DMEM high glucose medium (Mediatech, Manassas, VA, USA) supplemented with 10% (MDA-MB-231 and B16-F10) or 15% (MEF) heat-inactivated fetal bovine serum (HyClone Laboratories, South Logan, USA), 100 IU ml^-1 penicillin and 100 μg ml^-1 streptomycin while maintained at 37°C in a 5% CO2 humidified atmosphere. Cell viability was measured using a CyQuant® Direct Cell Proliferation Assay Kit (Life Technologies, Grand Island, NY, USA) following the manufacturer’s instruction. Briefly, 5,000 cells per well were seeded onto a flat-bottom 96-well plate in 200 μL final volume. Six hours after seeding, the culture medium was replaced by the medium containing the tested compounds at 0.01 to 100 µM concentrations in DMSO (0.1% final concentration) during 72 h. Untreated cells (medium containing only 0.1% DMSO) were used as controls. At the end of the incubation, 100 μL of culture medium was removed from each well and replaced by detection reagent solution provided by the kit (which is a 1:5 mixture of the reagent CyQUANT®, direct nucleic acid stain and the reagent labeled as CyQUANT® direct background suppressor I). Cells were incubated for 1 h and fluorescence emission was measured at 535 nm with excitation at 480 nm in a microplate reader (Infinite 200 PRO, Tecan, Grödig, Austria). At least four independent experiments were performed for each concentration. The results from each experiment were transformed into percentage of controls and the LC50 values were graphically obtained from the dose-response curves. The LC50 value was obtained adjusting the dose-response curve to sigmoidal curves (variable slope) using the GraphPad Prisma 6.0 software ([GraphPad-Software, 2015]).

For series [2], the system named is MEF primary mouse embryonic fibroblast. The description is as above. Type of series: cell-based. The note with it: MEF (non-cancerous cells); 72 h. As to the method:
as §2

Series [3] has as its system MDA-MB-231 human breast adenocarcinoma cells. The description is as above. The format is cell-based. The note with it: for CC50: Homo sapiens, MDA-MB-231, 72 h, read-out: LC50 ± SD. As to the method:
as §2

A further series deals with P. cinnamomi. Kind of series: In vitro fungicidal activity, radial mycelial growth test on PDA. The format is cell-based, Phytophtora cinnamomi. The note with it: Phytophthora cinnamomi, 120 h, read-out: Percentage of inhibition on in vitro mycelial growth of P. cinnamomi; for inhibition at 50 µg/mL: 50 mg/L; for inhibition at 150 µg/mL: 150 mg/L; for inhibition at 250 µg/mL: 250 mg/L. As to the method: A strain of Botrytis cinerea isolated from a naturally infected grape (Vitis vinifera) was used in all experiments. Isolated Phytophtora cinnamomi was provided by the Agricultural and Livestock Service of Valparaíso. Both strains were maintained on a potato dextrose agar (PDA) medium (DIFCO, Detroit, MI) at 4°C. The inoculum of both pathogens was grown on PDA and incubates in dark at 23°C for 5 days in the case of B. cinerea and 8 days for P. cinnamomi.
The fungicidal activity of flavanones, extracts, the negative control (C-) composed of solvent (1% ethanol), and the positive control (C+, commercial fungicide Captan® and metalaxil® for B. cinerea and P. cinnamomi, respectively) were assessed using the radial growth test technique on PDA medium as described ([Taborga et al., 2015]). All test samples were dissolved in ethanol (1%) and water, to obtain final concentrations of 50, 150, and 250 mg/L in the PDA medium. A plug (4 mm) of PDA medium with five-day-old mycelium colonies of the pathogen was placed at the center of a Petri dish with PDA medium with or without studied test samples and were incubated at 23°C in dark for 72 h (B. cinerea) and 120 h (P. cinnamomi). After incubation, the diameters of colonies were measured and the inhibition percentage was calculated as the average of three replicas compared to C-.

A further series has as its target T1, 5-hLOX (Homo sapiens, UniProt P09917).
T1 construct: purchased Cayman Chemicals Inc. (Ann Arbor, MI, USA)
T1 sequence (P09917 1-674): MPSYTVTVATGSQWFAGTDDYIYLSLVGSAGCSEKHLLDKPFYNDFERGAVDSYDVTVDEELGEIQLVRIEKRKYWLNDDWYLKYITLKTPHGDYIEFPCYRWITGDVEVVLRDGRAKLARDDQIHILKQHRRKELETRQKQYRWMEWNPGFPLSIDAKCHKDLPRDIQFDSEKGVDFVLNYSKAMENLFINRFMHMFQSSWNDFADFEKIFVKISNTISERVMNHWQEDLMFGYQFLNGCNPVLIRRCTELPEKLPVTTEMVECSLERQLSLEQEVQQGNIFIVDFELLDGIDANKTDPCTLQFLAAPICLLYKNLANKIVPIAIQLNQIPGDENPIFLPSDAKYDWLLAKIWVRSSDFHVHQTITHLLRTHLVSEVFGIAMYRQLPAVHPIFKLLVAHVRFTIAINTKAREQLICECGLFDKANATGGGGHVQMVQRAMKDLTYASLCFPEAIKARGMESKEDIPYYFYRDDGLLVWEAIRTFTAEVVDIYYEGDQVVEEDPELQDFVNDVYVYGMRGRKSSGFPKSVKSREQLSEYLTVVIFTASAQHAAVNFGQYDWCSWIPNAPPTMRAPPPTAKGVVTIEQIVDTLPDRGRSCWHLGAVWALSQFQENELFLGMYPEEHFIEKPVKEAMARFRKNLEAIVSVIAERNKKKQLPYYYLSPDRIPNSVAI
Kind of series: In vitro 5-hLOX enzyme assay (H2DCFDA fluorescence). The format is biochemical. To be noted: kinetic assays, inhibitor 0–1 μM, substrate 0.2–5 μM.

This is an account of results in PMC7399337, “Biological Properties and Absolute Configuration of Flavanones From Calceolaria thyrsiflora Graham” (Frontiers in Pharmacology, 2020).

Values after ≈ are worked out from the molar mass of the structure shown. Like-named read-outs stand apart in the source and are kept apart here.

Take `COc1cc(O)c2c(c1)O[C@H](c1ccc(O)cc1)CC2=O` [Compound 1, (-)-(2S)-5,4’-dihydroxy-7-methoxyflavanone]: the MIC in the series on E. coli 33.1, in the series with S. aureus MRSA 622-4, with S. aureus NTCC8325-4, in the series on S. aureus MRSA 97-7 and in the series with E. coli ATCC25922 was above 100 µg/mL throughout. Moreover, the CC50 at 72 h in [1] (MEF (non-cancerous cells), 72 h, read-out: LC50 ± SD) was 146 ± 23.4 µM. Moreover, the “LC50 ± SD” value is reported as “no significant cytotoxic activity” in series [2] and “no significant cytotoxic activity” in series [3] (MDA-MB-231, 72 h). Moreover, the CC50 in series [3] was around 1100 µM. The inhibition at 50 µg/mL in the series with P. cinnamomi worked out at 0%. Further, the inhibition at 150 µg/mL with P. cinnamomi came out at 0%. In the series on P. cinnamomi, the inhibition at 250 µg/mL stood at 0%.

As for `COc1cc(O)c2c(c1)O[C@H](c1ccc(O)c(O)c1)CC2=O` [Compound 2, (-)-(2S)-5,3’,4’-trihydroxy-7-methoxyflavanone], the MIC was above 100 µg/mL in the series with E. coli 33.1; above 100 µg/mL in the series on S. aureus MRSA 622-4; above 100 µg/mL in the series with S. aureus NTCC8325-4; 50 µg/mL (≈ 165 µM) with S. aureus MRSA 97-7; above 100 µg/mL with E. coli ATCC25922. This compound came in with a CC50 at 72 h in [1] of 31 ± 3.69 µM. Also, in series [3], the CC50 is 48.7 ± 9.32 µM. The inhibition at 50 µg/mL in the series with P. cinnamomi amounted to 0%. Further, in the series on P. cinnamomi, the inhibition at 150 µg/mL was determined as 33 ± 5.8%. The inhibition at 250 µg/mL in the series with P. cinnamomi is 42 ± 5.3%. This compound also returned a Ki at 5-hLOX of 0.05 µM.
